According to the supplement of paper PMC13380429:

Legend:
Conditions in all cases: 72 h
Caco-2 [1] = assay: drug sensitivity score (DSS) for viability; higher = more toxic; extreme values may be limits of the assay
HepG2 [2] = assay: as above
U2OS [3] = assay: as above
Calu-3 [4] = assay: as above
Caco-2 [5] = assay: relative viability EC50 (midpoint between 100% and the lowest measured viability); higher = less toxic
HepG2 [6] = assay: as above
U2OS [7] = assay: as above
Calu-3 [8] = assay: as above
Caco-2 [9] = assay: cell viability relative to DMSO; higher = less toxic
HepG2 [10] = assay: as above
U2OS [11] = assay: as above
Calu-3 [12] = assay: as above
Vero E6 [13] = assay: drug sensitivity score (DSS) for viability; higher = more toxic; extreme values may be limits of the assay
Vero E6 [14] = assay: relative viability EC50 (midpoint between 100% and the lowest measured viability); higher = less toxic
Vero E6 [15] = assay: cell viability relative to DMSO; higher = less toxic

SMILES	drug sensitivity score (Caco-2 [1])	drug sensitivity score (HepG2 [2])	drug sensitivity score (U2OS [3])	drug sensitivity score (Calu-3 [4])	relative viability EC50 (Caco-2 [5]) [µM]	relative viability EC50 (HepG2 [6]) [µM]	relative viability EC50 (U2OS [7]) [µM]	relative viability EC50 (Calu-3 [8]) [µM]	cell viability (Caco-2 [9]; 1 nM) [%]	cell viability (Caco-2 [9]; 10 nM) [%]	cell viability (Caco-2 [9]; 100 nM) [%]	cell viability (Caco-2 [9]; 1000 nM) [%]	cell viability (Caco-2 [9]; 10000 nM) [%]	cell viability (HepG2 [10]; 1 nM) [%]	cell viability (HepG2 [10]; 10 nM) [%]	cell viability (HepG2 [10]; 100 nM) [%]	cell viability (HepG2 [10]; 1000 nM) [%]	cell viability (HepG2 [10]; 10000 nM) [%]	cell viability (U2OS [11]; 1 nM) [%]	cell viability (U2OS [11]; 10 nM) [%]	cell viability (U2OS [11]; 100 nM) [%]	cell viability (U2OS [11]; 1000 nM) [%]	cell viability (U2OS [11]; 10000 nM) [%]	cell viability (Calu-3 [12]; 1 nM) [%]	cell viability (Calu-3 [12]; 10 nM) [%]	cell viability (Calu-3 [12]; 100 nM) [%]	cell viability (Calu-3 [12]; 1000 nM) [%]	cell viability (Calu-3 [12]; 10000 nM) [%]	drug sensitivity score (Vero E6 [13])	relative viability EC50 (Vero E6 [14]) [µM]	cell viability (Vero E6 [15]; 1 nM) [%]	cell viability (Vero E6 [15]; 10 nM) [%]	cell viability (Vero E6 [15]; 100 nM) [%]	cell viability (Vero E6 [15]; 1000 nM) [%]	cell viability (Vero E6 [15]; 10000 nM) [%]
C[n+]1ccccc1C=NO [pralidoxime]	0	0	0	0	> 10	> 10	> 10	> 10	103	94.5	105	99.8	95	106	115	102	101	89.7	100	97.4	103	98.4	103	96.6	93.1	93.8	91.3	110	–	–	–	–	–	–	–
Cc1c(-c2ccccc2)oc2c(C(=O)OCCN3CCCCC3)cccc2c1=O [flavoxate]	0	0	0	0	> 10	> 10	> 10	> 10	89.1	91.5	92.9	97.1	108	102	99.2	104	98.3	96.1	97.3	101	93	104	98.8	94.9	91.9	91.7	105	110	0	> 10	98.1	91.7	96.2	94.1	107
O=C1C(Cl)=C(NCCN2CCOCC2)C(=O)c2ncccc21	9.4	7.8	6.2	4.7	1.46	2.04	2.8	3.61	94	90.9	89.5	68.4	1.1	94	90.7	87.6	86.1	1.6	98.1	94.1	99.5	95.3	0	110	104	100	109	5.1	1.7	–	102	100	100	99.3	65.4
Cc1cncc(CN2CCC(=C3c4ccc(Cl)cc4CCc4cccnc43)CC2)c1 [rupatadine]	0.7	1.9	0	0	> 10	–	> 10	> 10	98.3	102	93.8	90.2	88.3	112	100	99.2	95.5	71.9	101	91.9	99.5	95.6	90.3	105	97.1	99.9	109	113	0	> 10	99	102	96.8	100	102
COc1ccc(CC(=O)NC(/N=C(\NC#N)Nc2cccc3ncccc23)C(C)(C)C)cc1OC (centres undefined)	0	0	–	0	> 10	> 10	–	> 10	101	97.8	94.1	101	99.7	107	95.7	93.8	97.5	106	–	–	–	–	–	113	96.5	95.6	109	103	0	> 10	103	97	91.1	96.9	99.8
COCC[n+]1c2c(n(Cc3cnccn3)c1C)C(=O)c1ccccc1C2=O [YM-155]	40.1	27	37.2	39	0.0039	0.0587	0.0091	0.0051	81.5	27.8	3.8	1.7	1.7	103	102	21	3	0.4	100	44.3	1.5	-0.2	-0.1	83.9	34.4	3	0.5	0.4	4	–	90.7	97.4	87.5	85.2	52
O=c1ccc2c(OCCCCOc3ccccc3)c3ccoc3cc2o1 [AS-77]	0	0	0	0	> 10	> 10	> 10	> 10	97	99	96.6	105	89.7	106	99.4	98.3	94.4	90	98.1	102	101	104	100	97.5	92.5	95.8	102	98.4	–	–	–	–	–	–	–
Sc1nc2ccccc2s1 [benzo[d]thiazole-2(3H)-thione]	0	0	0	0	> 10	> 10	> 10	> 10	96.5	101	97.1	103	94.8	99.8	101	119	101	108	100	103	94.8	102	97.2	76.6	91.1	96.7	96.3	93.1	–	–	–	–	–	–	–
